# Measured values reported in paper PMC7069095, “A cell-permeable peptide-based PROTAC against the oncoprotein CREPT proficiently inhibits pancreatic cancer” (Theranostics, 2020).
# Columns and labels:
# [1] = Circular dichroism (CD) spectroscopy; format: physicochemical; settings: 0.1 mg/mL in deionized water, room temperature
# Experimental: All peptides were dissolved in the deionized water at a final concentration of 0.1 mg/mL. The CD spectra were measured by using a 1 nm bandwidth with a 1 nm step resolution from 190 to 260 nm at room temperature (Jasco spectropolarimeter, Japan). Final spectra were obtained from the average of three parallel scans after subtracting a spectrum of deionized water recorded under the same conditions. Each sample was scanned thrice and the averaged spectrum was smoothed. The helicity were calculated by CDNN 2.1 [59], [60].
# [2] = biological target: T1, endogenous CREPT protein in Panc-1 cells (Homo sapiens, UniProt Q9NQG5); assay: Western blot of endogenous CREPT (degradation); format: cell-based; settings: different dosages (24 h) or time points (10 μM)
# T1 construct: endogenous protein level of CREPT in Panc-1, AsPc-1 and MIA-PaCa-2 cells; endogenous in cells; host or cells: Panc-1, AsPc-1, MIA PaCa-2
# T1 sequence (Q9NQG5 1-326): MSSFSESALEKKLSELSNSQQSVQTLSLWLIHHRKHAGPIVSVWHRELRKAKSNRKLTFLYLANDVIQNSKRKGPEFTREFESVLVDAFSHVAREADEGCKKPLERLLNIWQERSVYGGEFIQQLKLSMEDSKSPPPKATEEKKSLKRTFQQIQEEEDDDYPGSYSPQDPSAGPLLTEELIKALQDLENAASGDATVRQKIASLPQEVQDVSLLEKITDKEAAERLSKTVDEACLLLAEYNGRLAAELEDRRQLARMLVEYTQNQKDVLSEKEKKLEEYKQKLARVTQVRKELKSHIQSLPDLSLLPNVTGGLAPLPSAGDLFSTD
# Experimental: (§1) For exogenous immunoprecipitation assays, HEK293T cells were plated in 60 mm dishes and then transfected with the indicated plasmids. After 24 h, cells were harvested using RIPA buffer (50 mM Tris-HCl pH 8.0, 2 mM EDTA pH 8.0, 150 mM NaCl, 1% NP-40, 0.5% sodium deoxycholate, 0.1% SDS) with mixed protease inhibitors. Cell lysates were incubated with 2 μg of the indicated antibodies and 30 μL of protein A/G-Sepharose beads at 4 °C overnight. Beads were eluted five times with lysis buffer (50 mM Tris-HCl pH 7.6, 1 mM EDTA pH 8.0, 165 mM NaCl, 0.5% NP-40), and thereafter, a western blot assay was performed to analyze the association by using the indicated antibodies. Western blot was performed as previously reported. Anti-β-actin and anti-Flag antibodies were purchased from Sigma. Anti-Myc antibody was purchased from Santa Cruz Biotechnology. Antibody against CREPT was produced in the laboratory.
# (§2) To address whether PRTC could induce CREPT degradation, we examined the endogenous protein level of CREPT in Panc-1, AsPc-1 and MIA-PaCa-2 cells in the presence of different dosages of PRTC. […] Consistently, treatment with PRTC led to decreases in CREPT protein at different times (Figure 5B, S3A). […] To further visualize the degradation process, we stained the endogenous CREPT protein with an antibody against CREPT in the cells treated with FITC-labeled PRTC.
# Figure 5 PRTC induces the ubiquitination and proteasome- dependent degradation of the endogenous CREPT protein. (A) Immunoblot of CREPT following 24 h incubation with different dosages of PRTC or PRTC-m in Panc-1 cells. (B) Immunoblot of CREPT exposed to 10 μM PRTC or PRTC-m for different times in Panc-1 cells. (C) Western blot analysis of CREPT following 24 h incubation with 10 μM PTRC in Panc-1 cells. MG132 is an inhibitor of proteasome activity. (D) Immunofluorescence visualization of Panc-1 cells after treatment with PRTC for 24 h. Cells were stained with anti-CREPT antibody. Scale bars, 20 μm.
# [3] = biological target: T2, ubiquitinated CREPT in Panc-1 cells (Homo sapiens, UniProt Q9NQG5); assay: Endogenous IP of CREPT with ubiquitin (Co-IP); format: cell-based; settings: 10 μM peptide for 24 h, IP: CREPT, IB: anti-ubiquitin
# T2 construct: endogenous protein level of CREPT in Panc-1, AsPc-1 and MIA-PaCa-2 cells; endogenous in cells; host or cells: Panc-1, AsPc-1, MIA PaCa-2
# T2 sequence (Q9NQG5 1-326): T1 sequence (Q9NQG5 1-326)
# Experimental: as §1
# In addition, a Co-IP experiment was performed in Panc-1 cells treated with 10 μM PRTC, PRTC-m or PRTC-v for 24 h. […] In the absence of MG132, the level of ubiquitinated CREPT was further increased by PRTC (Figure 6C, compare lane 1 and lane 2).
# Figure 6 The degradation of CREPT by PRTC is dependent on its VHL ligand. (A) Immunoblot of CREPT following 24 h incubation with different dosages of PRTC or PRTC-v in Panc-1 cells. (B) Immunoblot of CREPT exposed to 10 μM PRTC or PRTC-v for different time points in Panc-1 cells. (C) Endogenous IP experiment of CREPT with ubiquitin treated with 10 μM PTRC, PTRC-m or PTRC-v in Panc-1 cells. IP: CREPT, IB: Anti-ubiquitin.
# AsPc-1 cells = assay: Cell proliferation assay (CCK-8); format: cell-based; settings: 10 μM
# Experimental: (§3) Cells were seeded into 96-well plates (1000 cells per well) and cultured for the indicated times. Cell viability was evaluated using a CCK-8 kit (Solarbio, Beijing, China). The value of OD450 was calculated by spectrophotometer and presented as the mean ± standard deviation (SD) from three individual experiments. […]
# CellproliferationassayofAsPc-1cellstreatedwith deionizedwater(Ctrl), 10μMPRTC,10μM […]
# (§4) (1 picture or pasted object on this page, not shown here)
# MIA PaCa-2 cells = assay: Cell proliferation assay (CCK-8); format: cell-based; settings: 10 μM
# Experimental: as §3
# PaCa-2cells treatedwith deionizedH 2O(Ctrl),10μMPRTC, PRTC-mandPRTC-v. […]
# as §4
# Panc-1 cells = assay: Confocal fluorescence imaging of FITC labeled peptides in cells; format: cell-based; settings: confocal microscope, Panc-1 cells
# Experimental: To examine whether PRTC could permeate into pancreatic cancer cells, we synthesized fluorescein isothiocyanate (FITC) labeled PRTC, PRTC-m, PRTC-v, PRTC-r (PRTC without RRRRK) as well as TAT (a widely used cell penetrating peptide, as a positive control).
# Figure 3 Identification of the permeability of PRTC in Panc-1 cells. (A) Entry of FITC- labeled peptides into Panc-1 cells tested by flow cytometry. FITC-TAT is the positive control. Measurements were performed in triplicate. (B) Quantification of cellular uptake of Panc-1 cells treated with different concentrations of FITC-PRTC. (C) Confocal microscope images of Panc-1 cells treated with 10 μM FITC labeled peptides. Scale bars, 10 μm. (D) Confocal microscope images of Panc-1 cells treated with different dosages of FITC-PRTC. Scale bars, 10 μm.
# [4] = biological target: T1, endogenous CREPT protein in Panc-1 cells; assay: Immunofluorescence staining of CREPT in cells treated with FITC-PRTC; format: cell-based; settings: immunofluorescence with anti-CREPT antibody
# Experimental: After adherence, cells were treated with 10 μM PRTC for 24 h. The cells were then gently washed three times with warm PBS, fixed with 4% paraform and incubated with 0.25% Triton X-100 in PBST. Next, the cells were blocked in 5% BSA for 1 h at room temperature and incubated with an antibody against CREPT at 4 °C overnight. Cells were washed 3 times with PBST (0.1% Tween-20) and incubated with TRITC-labeled goat anti-mouse IgG antibody (Jackson ImmunoReseach) at a dilution rate of 1:100 at room temperature for 1 h. Coverslips were imaged by a confocal laser scanning microscope (OLYMPUS).
# as §2
Substance,secondary structure by CD spectrum [1],"Helicity ([1]; 190 to 260 nm, average of three scans, calculated by CDNN 2.1)",degradation of endogenous CREPT protein [2],ubiquitinated CREPT proteins [3],cell proliferation (AsPc-1 cells),cell proliferation (MIA PaCa-2 cells),localization of FITC labeled peptides in the cells (Panc-1 cells; 10 μM FITC labeled peptides),"subcellular localization (Panc-1 cells; increasing concentration and incubation time, repeated in AsPc-1 and MIA PaCa-2 cells)",endogenous CREPT protein at 24 h [4]
"KDVLSEKEKKLEEYKQKLARV-RRRRK [PRTC-v, PRTC without the VHL ligand]",α-helix structure,42.2%,failed to degrade,unable to mediate the accumulation,failed,failed,,,
"FITC-AHX-IYP (OH) AL-AHX-KDVLSEKEKKLEEYKQKLARV-RRRRK [FITC-PRTC, fluorescein isothiocyanate (FITC) labeled PRTC]",,,,,,,strong localization,localized into the nucleus,almost completely depleted
